Structures are written as SMILES.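 Where inhibition never reached the appropriate level, the endpoint shown equals the highest concentration tested. Otherwise, values were interpolated linearly from a five-concentration, 48-hour dose response in 96-well plates. At the GI50, growth is halved.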 Activity calls are given as the source filed them. No stated cut-off is given here; in the data, active = GI50 up to about 1.1 µM and inactive = higher.

What all share (experiment): NCI tumour cell line growth inhibition, 48 h
The subject of assay [1] is CAKI-1.
For assay [2], the system named is IGROV-1.
Assay [3] relates to K562.
Assay [4] relates to LOX IMVI.
The test system of assay [5] is M14.
Assay [6] deals with MDA-N.
Assay [7] relates to Malme-3M.
For assay [8], the system named is NCI-H226.
The test system of assay [9] is NCI/ADR-RES.
Assay [10] concerns OVCAR-3.
For assay [11], the system named is OVCAR-8.
Assay [12] concerns RXF 393.
For assay [13], the system named is SF-295.
Assay [14] has as its system SK-MEL-2.
Assay [15] concerns SK-MEL-5.
Assay [16] has as its system SR.
The test system of assay [17] is T47D.
The test system of assay [18] is U-251.
Assay [19] has as its system UACC-257.
The test system of assay [20] is UACC-62.

Consider `CCOC(=O)CC1C(O)C(=O)N(C)C1c1ccccc1` (stereo not given), for which the GI50 in assay [1], in assay [2], in assay [3], in assay [4], in assay [5] and in [6] was > 100 µM (inactive) in each case. Besides, the GI50 in assay [7], in assay [8], in [9], in assay [10], in assay [11] and in assay [12] was > 100 µM (inactive) throughout. Moreover, the GI50 in [13], in assay [14], in assay [15], in assay [16], in assay [17] and in assay [18] was > 100 µM (inactive) each time. For the same compound, the GI50 in assay [19] and in assay [20] was > 100 µM (inactive) throughout.

Regarding `C#CCCCOc1ncccn1`, the GI50 in [1], in assay [2], in [3], in assay [4], in [5] and in assay [6] was > 100 µM (inactive) in each case. Also, the GI50 in [7], in [8], in assay [9], in assay [10], in [11] and in assay [12] was > 100 µM (inactive) each time. The GI50 in assay [13], in [14], in assay [15], in assay [16], in assay [17] and in assay [18] was > 100 µM (inactive) each time. For the same compound, the GI50 in assay [19] and in assay [20] was > 100 µM (inactive) in each case.

With `CN(C)c1ccc(/C=C2\C[C@H]3[C@@H]4CCC5=CC(=O)CC[C@]5(C)[C@H]4CC[C@]3(C)C2=O)cc1`, the GI50 in assay [1] was > 100 µM (inactive); in [2], 63.1 µM (inactive); in assay [3] it was 19 µM (inactive); in assay [4] it was 20.8 µM (inactive); in [5] it was 43.9 µM (inactive); in assay [6], 19.5 µM (inactive). The GI50 is 25 µM (inactive) in assay [7]; 62.4 µM (inactive) in assay [8]; 38.3 µM (inactive) in [9]; 88.1 µM (inactive) in assay [10]; 31.8 µM (inactive) in [11]; 99.5 µM (inactive) in [12]. Besides, the GI50 is > 100 µM (inactive) in assay [13]; 50.9 µM (inactive) in [14]; 12.4 µM (inactive) in assay [15]; 17.7 µM (inactive) in assay [16]; 17.4 µM (inactive) in [17]; 20.2 µM (inactive) in assay [18]. The GI50 in assay [19] is 19 µM (inactive); in assay [20], 20 µM (inactive).

Take `Cc1ccc(NC(=O)/C(Cc2cc(=O)oc3cc(O)ccc23)=N\NC(=O)C[N+](C)(C)C)cc1C`: the GI50 in assay [1], in [2], in assay [3], in assay [4], in [5] and in assay [6] was > 100 µM (inactive) throughout. Also, the GI50 is > 100 µM (inactive) in [7]; > 100 µM (inactive) in assay [8]; > 100 µM (inactive) in assay [9]; > 100 µM (inactive) in assay [10]; > 100 µM (inactive) in [11]; 66.2 µM (inactive) in assay [12]. For the same compound, the GI50 in assay [13], in [14], in assay [15], in assay [16], in assay [17] and in assay [18] was > 100 µM (inactive) each time. In addition, the GI50 in assay [19] and in [20] was > 100 µM (inactive) in each case.

For the compound `C[Si](C)(c1ccc(C(=O)O)cc1)c1ccc(C(=O)O)cc1`, the GI50 in assay [1], in assay [2], in assay [3], in assay [4], in [5] and in assay [6] was > 100 µM (inactive) in each case. Also, the GI50 in assay [7], in assay [8], in assay [9], in assay [10], in assay [11] and in assay [12] was > 100 µM (inactive) each time. Further, the GI50 in [13], in assay [14], in [15], in [16], in assay [17] and in assay [18] was > 100 µM (inactive) throughout. The GI50 in assay [19] and in assay [20] was > 100 µM (inactive) in each case.

For the compound `CC(C)(C)OC(=O)N1CCC2(C)CC(=O)CC=C12` (stereo not given), the GI50 in assay [1], in [2], in assay [3], in assay [4], in assay [5] and in assay [6] was > 100 µM (inactive) throughout. Moreover, the GI50 in assay [7], in [8], in [9], in assay [10], in [11] and in [12] was > 100 µM (inactive) throughout. The GI50 in [13] is > 100 µM (inactive); in assay [14] it was > 100 µM (inactive); in assay [15], > 100 µM (inactive); in assay [16] it was 72.4 µM (inactive); in assay [17], > 100 µM (inactive); in [18] it was > 100 µM (inactive). In addition, the GI50 in assay [19] is 28.2 µM (inactive); in [20], > 100 µM (inactive).

Regarding `COc1cc(C2c3cc4c(cc3OC(NNS(=O)(=O)c3ccc(C)cc3)C2C)OCO4)cc(OC)c1OC` (stereo not given), the GI50 was 1.68 µM (inactive) in assay [1]; 2.68 µM (inactive) in assay [2]; 0.55 µM (active) in assay [3]; 1.87 µM (inactive) in [4]; 0.776 µM (active) in [5]; 0.289 µM (active) in [6]. The GI50 in [7] is 3.04 µM (inactive); in [8], 3.14 µM (inactive); in assay [9], 3.24 µM (inactive); in assay [10], 1.26 µM (inactive); in [11], 8.91 µM (inactive); in assay [12] it was 1.76 µM (inactive). Moreover, the GI50 was 0.989 µM (active) in assay [13]; 0.984 µM (active) in assay [14]; 0.883 µM (active) in [15]; 0.839 µM (active) in assay [16]; 3.48 µM (inactive) in assay [17]; 2.14 µM (inactive) in assay [18]. In addition, the GI50 is 3.21 µM (inactive) in assay [19] and 1.36 µM (inactive) in [20].

As for `C=CCCCCNC(=O)C[C@@H]1C2=C(CC[C@H]1O[Si](C)(C)C(C)(C)C)N1C(=O)CCC/C=C\C1C2` (stereo not given in full), the GI50 was 12.4 µM (inactive) in assay [1]; 15.6 µM (inactive) in assay [2]; 5.3 µM (inactive) in assay [3]; 17 µM (inactive) in [4]; 14.3 µM (inactive) in [5]; 16.3 µM (inactive) in [6]. For the same compound, the GI50 in assay [7] was 14.7 µM (inactive); in assay [8], 15.5 µM (inactive); in assay [9] it was 12.2 µM (inactive); in assay [10], 14 µM (inactive); in [11], 14.9 µM (inactive); in assay [12] it was 10.8 µM (inactive). The GI50 is 14.9 µM (inactive) in assay [13]; 13.2 µM (inactive) in assay [14]; 14.1 µM (inactive) in [15]; 5.75 µM (inactive) in assay [16]; 12.7 µM (inactive) in assay [17]; 13.5 µM (inactive) in assay [18]. In addition, the values for the GI50 in [19] and in [20] were 13.1 µM (inactive) and 12.9 µM (inactive), respectively.

As to `O=[N+]([O-])CC(SCc1ccccc1)c1ccc2c(c1)OCO2` (stereo not given), the GI50 in assay [1] is 14.2 µM (inactive); in assay [2], 5.6 µM (inactive); in assay [3] it was 1.55 µM (inactive); in [4], 1.56 µM (inactive); in assay [5] it was 5.6 µM (inactive); in assay [6], 2.45 µM (inactive). Also, the GI50 was 14.9 µM (inactive) in [7]; 7.91 µM (inactive) in assay [8]; 9.57 µM (inactive) in assay [9]; 6.12 µM (inactive) in assay [10]; 8.49 µM (inactive) in assay [11]; 1.82 µM (inactive) in [12]. For the same compound, the GI50 in assay [13] is 7.76 µM (inactive); in assay [14] it was 21.1 µM (inactive); in assay [15], 12.2 µM (inactive); in assay [16], 3.13 µM (inactive); in [17], 19.6 µM (inactive); in [18], 6.59 µM (inactive). The GI50 in assay [19] was 6.79 µM (inactive); in assay [20] it was 9.89 µM (inactive).

As to `CC(=O)OCC1OC(N2C(S)=C(C#N)C(c3ccco3)C(C(C)=O)=C2c2ccccc2)C(OC(C)=O)C(OC(C)=O)C1OC(C)=O` (stereo not given), the GI50 in assay [1] was 40.9 µM (inactive); in [2] it was 54.5 µM (inactive); in assay [3], > 100 µM (inactive); in assay [4], 32.1 µM (inactive); in assay [5], 94.6 µM (inactive); in assay [6], 26.2 µM (inactive). For the same compound, the GI50 in assay [7] is 52.5 µM (inactive); in assay [8] it was > 100 µM (inactive); in [9] it was > 100 µM (inactive); in assay [10], 77.6 µM (inactive); in assay [11], 61 µM (inactive); in [12], > 100 µM (inactive). In addition, the GI50 in assay [13] was 23.4 µM (inactive); in assay [14] it was > 100 µM (inactive); in [15], 29 µM (inactive); in assay [16], > 100 µM (inactive); in [17] it was > 100 µM (inactive); in assay [18] it was 39.3 µM (inactive). Moreover, the figures for the GI50 in assay [19] and in [20] were > 100 µM (inactive) and 34 µM (inactive), respectively.

The values are drawn from ChEMBL document CHEMBL1201862, “PubChem BioAssay data set” (2004).
